This note sets out measurements from ChEMBL document CHEMBL5365393, “Comprehensive coverage on anti-mycobacterial endeavour reported during 2022” (Eur J Med Chem, 2023).

Common to all, as to assay type: functional
The test system of assay [1] is Mycobacterium tuberculosis. Nature of the assay: Antibacterial activity against isoniazid and rifampicin-resistant Mycobacterium tuberculosis T113/09 assessed as inhibition of bacterial growth.
Assay [2] deals with Mycobacterium tuberculosis. Nature of the assay: Antibacterial activity against streptomycin-resistant Mycobacterium tuberculosis H37Rv assessed as inhibition of bacterial growth.
Assay [3] relates to Mycobacterium tuberculosis. Nature of the assay: Antibacterial activity against rifampicin-resistant Mycobacterium tuberculosis H37Rv assessed as inhibition of bacterial growth.
Assay [4] has as its system Mycobacterium tuberculosis. Nature of the assay: Antibacterial activity against ethambutol-resistant Mycobacterium tuberculosis H37Rv assessed as inhibition of bacterial growth.
The subject of assay [5] is Mycobacterium tuberculosis. Nature of the assay: Antibacterial activity against isoniazid-resistant Mycobacterium tuberculosis H37Rv assessed as inhibition of bacterial growth.
Assay [6] relates to Mycobacterium tuberculosis. Nature of the assay: Antibacterial activity against multidrug-resistant Mycobacterium tuberculosis assessed as inhibition of bacterial growth.
Assay [7] concerns Mycobacterium tuberculosis. Nature of the assay: Antibacterial activity against extensively drug-resistant Mycobacterium tuberculosis assessed as inhibition of bacterial growth.
Assay [8] relates to Mycobacterium tuberculosis. Nature of the assay: Antibacterial activity against multidrug-resistant Mycobacterium tuberculosis clinical isolate H37Rv assessed as inhibition of bacterial growth.
For assay [9], the system named is Mycobacterium tuberculosis. Nature of the assay: Antibacterial activity against extensively drug-resistant Mycobacterium tuberculosis clinical isolate H37Rv assessed as inhibition of bacterial growth.
Assay [10] deals with Mycobacterium tuberculosis. Nature of the assay: Antibacterial activity against multidrug-resistant Mycobacterium tuberculosis assessed as inhibition of bacterial growth by microplate alamar blue assay.
In assay [11] the test system is Mycobacterium tuberculosis. Nature of the assay: Antibacterial activity against extensively drug-resistant Mycobacterium tuberculosis assessed as inhibition of bacterial growth by microplate alamar blue assay. For orientation: Resazurin is reduced to fluorescent resorufin, in cell work by metabolically active cells.
Assay [12] has as its system Mycobacterium tuberculosis. Nature of the assay: Antibacterial activity against multidrug-resistant Mycobacterium tuberculosis clinical isolate CDCT-27 assessed as inhibition of bacterial growth.
For assay [13], the system named is Mycobacterium tuberculosis. Nature of the assay: Antibacterial activity against multidrug-resistant Mycobacterium tuberculosis clinical isolate CDCT-16 assessed as inhibition of bacterial growth.

Converted amounts (≈) assume the structure as drawn.

As to `CCCCCCc1ccc(-c2cn(CC(=O)Cn3ccnc3[N+](=O)[O-])nn2)cc1`, the MIC (usually the smallest concentration in the dilution series that meets the test's criterion for growth inhibition) in assay [1] is 16.3 µM (≈ 6.46 µg/mL).

As to `COC(=O)c1cc(-c2ccc(OC)c(NC(=O)c3cc(-c4cccc(Cl)c4)nc4ccccc34)c2)on1`, the MIC in assay [2] stood at 0.25 µg/mL (≈ 0.486 µM); in assay [3], 0.25 µg/mL (≈ 0.486 µM); in [4], 0.25 µg/mL (≈ 0.486 µM); in assay [5] it was 0.5 µg/mL (≈ 0.973 µM).

As to `COc1ccc(-c2nn(-c3ccc([N+](=O)[O-])cc3[N+](=O)[O-])c(N)c2C#N)cc1Oc1cccc(Br)c1C#N`, the MIC in [6] worked out at 1.95 µg/mL (≈ 3.38 µM); in [7], 3.9 µg/mL (≈ 6.77 µM).

Regarding `CC(C)/N=c1\cc2n(-c3ccccc3)c3ccccc3nc-2cc1Nc1ccc(N2CCN(C)CC2)c(F)c1`, the MIC in assay [8] and in [9] was 0.08 µg/mL (≈ 0.154 µM) in each case.

For `O=C(N/N=C1\C(=O)N(Cc2ccccc2)c2ccccc21)c1cnc2cc(Cl)ccc2c1O`, the figures for the MIC in [10] and in assay [11] were 0.24 µg/mL (≈ 0.525 µM) and 1.95 µg/mL (≈ 4.27 µM), respectively.

As to `Cc1nc2cc(C(F)(F)F)ccc2n1-c1ncc(C(F)(F)F)s1`, the MIC in [12] stood at 3.68 µM (≈ 1.29 µg/mL); in [13] it was 4.16 µM (≈ 1.46 µg/mL).
